{"source": "patent US20240279215A1", "about": "(Cytokinetics, Incorporated, priority 2022, published 2024)"}
{"target": "human NAMPT (Homo sapiens (Human), UniProt P43490)", "sequence (P43490 whole entry)": "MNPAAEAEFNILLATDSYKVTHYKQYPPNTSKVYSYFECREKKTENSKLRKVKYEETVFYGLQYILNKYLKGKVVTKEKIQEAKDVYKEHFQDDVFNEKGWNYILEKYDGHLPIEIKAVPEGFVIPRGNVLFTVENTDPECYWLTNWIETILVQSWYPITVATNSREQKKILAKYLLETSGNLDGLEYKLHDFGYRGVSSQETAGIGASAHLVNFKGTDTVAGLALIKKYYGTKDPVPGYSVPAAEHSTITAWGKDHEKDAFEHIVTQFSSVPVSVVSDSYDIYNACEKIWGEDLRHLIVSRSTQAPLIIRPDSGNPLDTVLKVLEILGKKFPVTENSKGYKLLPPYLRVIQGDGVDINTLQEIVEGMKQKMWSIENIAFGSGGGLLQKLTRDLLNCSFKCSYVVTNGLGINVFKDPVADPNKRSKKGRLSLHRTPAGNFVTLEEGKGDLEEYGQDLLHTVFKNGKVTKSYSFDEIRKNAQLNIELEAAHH", "experiment": "NMN fluorescence biochemical assay (human recombinant NAMPT enzyme assay)", "in_short": "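NMN formed was detected by fluorescence (Ex/Em 355/460 nm) after acetophenone, KOH and formic acid derivatization. The cell-free reaction ran 60 min at ambient temperature with 6 nM human NAMPT, 150 μM nicotinamide, 20 μM PRPP, 2.5 mM ATP, pH 7.2 HEPES, and compound dose responses.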", "units": {"AC1.4 Human": "µM", "EC50": "µM"}}
{"smiles": "O=C(Nc1ccc(Cc2ccncc2)cc1)OCc1cn[nH]c1", "note": "[Compound 99, (1H-pyrazol-4-yl)methyl (4-(pyridin-4-ylmethyl)phenyl)carbamate]", "AC1.4 Human": 0.79, "EC50": 51.2}
{"smiles": "COc1ccc(C(=O)N[C@@H](C)c2ccc(NC(=O)OCc3ccc(Cl)cc3)cc2)cn1", "note": "[Compound 100, (4-chlorophenyl)methyl N-{4-[(1S)-1-[(6-methoxypyridin-3-yl)formamido]ethyl]phenyl}carbamate]", "AC1.4 Human": 0.81, "EC50": 1.22}
{"smiles": "CCn1nccc1C(=O)N[C@@H](C)c1ccc(NC(=O)OCc2ccc(Cl)cc2)cc1", "note": "[Compound 101, (4-chlorophenyl)methyl N-{4-[(1S)-1-[(2-ethylpyrazol-3-yl)formamido]ethyl]phenyl}carbamate]", "AC1.4 Human": 0.82, "EC50": 4.14}
{"smiles": "O=C(Nc1ccc(CC2CCN(C(=O)C3CCC3)CC2)cc1)OCc1ccc(Cl)cc1", "note": "[Compound 102, 4-chlorobenzyl (4-((1-(cyclobutanecarbonyl)piperidin-4-yl)methyl)phenyl)carbamate]", "AC1.4 Human": 0.82, "EC50": 1.89}
{"smiles": "C[C@H](NC(=O)N1CCCC1)c1ccc(NC(=O)OCc2ccc(Cl)cc2)cc1", "note": "[Compound 103, 4-chlorobenzyl (S)-(4-(1-(pyrrolidine-1-carboxamido)ethyl)phenyl)carbamate]", "AC1.4 Human": 0.83, "EC50": 4.31}
{"smiles": "Cc1ccc(C(=O)N(C)Cc2ccc(NC(=O)OCc3ccc(Cl)cc3)cc2)cn1", "note": "[Compound 104, (4-chlorophenyl)methyl N-(4-{[N-methyl-1-(6-methylpyridin-3-yl)formamido]methyl}phenyl)carbamate]", "AC1.4 Human": 0.85, "EC50": 5.06}
{"smiles": "C[C@H](NC(=O)c1ccncc1)c1ccc(NC(=O)OCc2ccc(Cl)cc2)cc1", "note": "[Compound 105, (4-chlorophenyl)methyl N-{4-[(1S)-1-(pyridin-4-ylformamido)ethyl]phenyl}carbamate]", "AC1.4 Human": 0.85, "EC50": 1.94}
{"smiles": "O=C(Nc1ccc(Cc2ccncc2)cc1)OCc1ccc(CO)cc1", "note": "[Compound 106, 4-(hydroxymethyl)benzyl (4-(pyridin-4-ylmethyl)phenyl)carbamate]", "AC1.4 Human": 0.86, "EC50": 26.4}
{"smiles": "CS(=O)(=O)N1CCN(Cc2ccc(NC(=O)OCc3ccc(Cl)cc3)cc2)CC1", "note": "[Compound 107, (4-chlorophenyl)methyl N-{4-[(4-methanesulfonylpiperazin-1-yl)methyl]phenyl}carbamate]", "AC1.4 Human": 0.89, "EC50": 10.8}
{"smiles": "Cc1nocc1C(=O)N(C)Cc1ccc(NC(=O)OCc2ccc(Cl)cc2)cc1", "note": "[Compound 108, (4-chlorophenyl)methyl N-(4-{[N-methyl-1-(3-methyl-1,2-oxazol-4-yl)formamido]methyl}phenyl)carbamate]", "AC1.4 Human": 0.89, "EC50": 8.17}
{"smiles": "Cc1ncc(C(=O)NCc2ccc(NC(=O)OCc3ccc(Cl)cc3)cc2)cn1", "note": "[Compound 109, (4-chlorophenyl)methyl N-(4-{[(2-methylpyrimidin-5-yl)formamido]methyl}phenyl)carbamate]", "AC1.4 Human": 0.90, "EC50": 4.71}
{"smiles": "COc1cc(C(=O)N[C@@H](C)c2ccc(NC(=O)OCc3ccc(Cl)cc3)cc2)cnc1C", "note": "[Compound 110, (4-chlorophenyl)methyl N-{4-[(1S)-1-[(5-methoxy-6-methylpyridin-3-yl)formamido]ethyl]phenyl}carbamate]", "AC1.4 Human": 0.91, "EC50": 3.46}
{"smiles": "O=C(Nc1ccc(CC(=O)N2CCCCC2)cc1)OCc1ccc(Cl)cc1", "note": "[Compound 111, (4-chlorophenyl)methyl N-{4-[2-oxo-2-(piperidin-1-yl)ethyl]phenyl}carbamate]", "AC1.4 Human": 0.91, "EC50": 5.33}
{"smiles": "CN(Cc1ccc(NC(=O)OCc2ccc(Cl)cc2)cc1)C(=O)N1CCC1", "note": "[Compound 112, 4-chlorobenzyl (4-((N-methylazetidine-1-carboxamido)methyl)phenyl)carbamate]", "AC1.4 Human": 0.93, "EC50": 5.53}
{"smiles": "O=C(Nc1ccc(C2CCN(CC(F)F)CC2)cc1)OCc1cnco1", "note": "[Compound 113, 1,3-oxazol-5-ylmethyl N-{4-[1-(2,2-difluoroethyl)piperidin-4-yl]phenyl}carbamate]", "AC1.4 Human": 0.94, "EC50": 51}
{"smiles": "Cc1ccc(Cc2ccc(NC(=O)OCc3cncs3)cc2)cn1", "note": "[Compound 114, thiazol-5-ylmethyl (4-((6-methylpyridin-3-yl)methyl)phenyl)carbamate]", "AC1.4 Human": 0.94, "EC50": 19.7}
{"smiles": "CC(=O)N1CCC(Cc2ccc(NC(=O)OCc3ccncc3)cc2)CC1", "note": "[Compound 115, pyridin-4-ylmethyl (4-((1-acetylpiperidin-4-yl)methyl)phenyl)carbamate]", "AC1.4 Human": 0.94, "EC50": 3.13}
{"smiles": "CC1(O)CCN(C(=O)Cc2ccc(NC(=O)OCc3ccc(Cl)cc3)cc2)CC1", "note": "[Compound 116, (4-chlorophenyl)methyl N-{4-[2-(4-hydroxy-4-methylpiperidin-1-yl)-2-oxoethyl]phenyl}carbamate]", "AC1.4 Human": 0.95, "EC50": 6.77}
{"smiles": "C[C@H](NC(=O)C1CCOCC1)c1ccc(NC(=O)OCc2ccc(Cl)cc2)cc1", "note": "[Compound 117, 4-chlorobenzyl (S)-(4-(1-(tetrahydro-2H-pyran-4-carboxamido)ethyl)phenyl)carbamate]", "AC1.4 Human": 0.95, "EC50": 8.14}
{"smiles": "C[C@H](NC(=O)c1cccnc1)c1ccc(NC(=O)OCc2ccc(Cl)cc2)cc1", "note": "[Compound 118, (4-chlorophenyl)methyl N-{4-[(1S)-1-(pyridin-3-ylformamido)ethyl]phenyl}carbamate]", "AC1.4 Human": 0.95, "EC50": 3.13}
{"smiles": "O=C(Nc1ccc(CC(=O)N2CCC(O)CC2)cc1)OCc1ccc(Cl)cc1", "note": "[Compound 119, (4-chlorophenyl)methyl N-{4-[2-(4-hydroxypiperidin-1-yl)-2-oxoethyl]phenyl}carbamate]", "AC1.4 Human": 0.95, "EC50": 21.7}
{"smiles": "COC(=O)N1CCC(CCc2ccc(NC(=O)OCc3cnco3)cc2)CC1", "note": "[Compound 120, methyl 4-(4-(((oxazol-5-ylmethoxy)carbonyl)amino)phenethyl)piperidine-1-carboxylate]", "AC1.4 Human": 0.96, "EC50": 44.9}
{"smiles": "C[C@H](NC(=O)C1COC1)c1ccc(NC(=O)OCc2ccc(Cl)cc2)cc1", "note": "[Compound 122, 4-chlorobenzyl (S)-(4-(1-(oxetane-3-carboxamido)ethyl)phenyl)carbamate]", "AC1.4 Human": 0.97, "EC50": 6.46}
{"smiles": "CC1(C)CCN(Cc2ccc(NC(=O)OCc3ccc(Cl)cc3)cc2)C1=O", "note": "[Compound 123, (4-chlorophenyl)methyl N-{4-[(3,3-dimethyl-2-oxopyrrolidin-1-yl)methyl]phenyl}carbamate]", "AC1.4 Human": 0.98, "EC50": 5.01}
{"smiles": "CN1CCC(C(=O)NCc2ccc(NC(=O)OCc3ccc(Cl)cc3)cc2)CC1=O", "note": "(stereo not shown) [Compound 124, (4-chlorophenyl)methyl N-(4-{[(1-methyl-2-oxopiperidin-4-yl)formamido]methyl}phenyl)carbamate]", "AC1.4 Human": 0.98, "EC50": 15.3}
{"smiles": "Cc1nc(C)c(C(=O)N[C@@H](C)c2ccc(NC(=O)OCc3ccc(Cl)cc3)cc2)o1", "note": "[Compound 125, 4-chlorobenzyl (S)-(4-(1-(2,4-dimethyloxazole-5-carboxamido)ethyl)phenyl)carbamate]", "AC1.4 Human": 0.98, "EC50": 6.02}
{"smiles": "O=C(Nc1ccc(CNC(=O)c2ccncc2)cc1)OCc1ccc(Cl)cc1", "note": "[Compound 126, (4-chlorophenyl)methyl N-{4-[(pyridin-4-ylformamido)methyl]phenyl}carbamate]", "AC1.4 Human": 0.99, "EC50": 4.06}
{"smiles": "Cc1nn(C)c(C(=O)N(C)Cc2ccc(NC(=O)OCc3ccc(Cl)cc3)cc2)c1C", "note": "[Compound 127, (4-chlorophenyl)methyl N-(4-{[N-methyl-1-(2,4,5-trimethylpyrazol-3-yl)formamido]methyl}phenyl)carbamate]", "AC1.4 Human": 1.00, "EC50": 7.3}
{"smiles": "CN(Cc1ccc(NC(=O)OCc2ccc(Cl)cc2)cc1)C(=O)N1CCCC1", "note": "[Compound 128, 4-chlorobenzyl (4-((N-methylpyrrolidine-1-carboxamido)methyl)phenyl)carbamate]", "AC1.4 Human": 1.03, "EC50": 4.75}
{"smiles": "CC(C)Cn1nccc1C(=O)N[C@@H](C)c1ccc(NC(=O)OCc2ccc(Cl)cc2)cc1", "note": "[Compound 129, (4-chlorophenyl)methyl N-{4-[(1S)-1-{[2-(2-methylpropyl)pyrazol-3-yl]formamido}ethyl]phenyl}carbamate]", "AC1.4 Human": 1.03, "EC50": 2.22}
{"smiles": "CN(Cc1ccc(NC(=O)OCc2ccc(Cl)cc2)cc1)C(=O)c1cnco1", "note": "[Compound 130, (4-chlorophenyl)methyl N-(4-[(N-methyl-1-1,3-oxazol-5-ylformamido)methyl]phenyl}carbamate]", "AC1.4 Human": 1.03, "EC50": 8.13}
{"smiles": "CC(C)n1nccc1C(=O)N(C)Cc1ccc(NC(=O)OCc2ccc(Cl)cc2)cc1", "note": "[Compound 131, (4-chlorophenyl)methyl N-(4-{[1-(2-isopropylpyrazol-3-yl)-N-methylformamido]methyl}phenyl)carbamate]", "AC1.4 Human": 1.05, "EC50": 2.55}
{"smiles": "Cc1ccc(C(=O)NCc2ccc(NC(=O)OCc3ccc(C(F)F)cc3)cc2)cn1", "note": "[Compound 133, (4-(difluoro-13-methyl)phenyl)methyl (4-((6-methylnicotinamido)methyl)phenyl)carbamate]", "AC1.4 Human": 1.07, "EC50": 8.6}
{"smiles": "COC1CCN(C(=O)N(C)[C@@H](C)c2ccc(NC(=O)OCc3ccc(Cl)cc3)cc2)CC1", "note": "[Compound 134, 4-chlorobenzyl (S)-(4-(1-(4-methoxy-N-methylpiperidine-1-carboxamido)ethyl)phenyl)carbamate]", "AC1.4 Human": 1.07, "EC50": 13.7}
{"smiles": "COc1cnn(C)c1C(=O)NCc1ccc(NC(=O)OCc2ccc(Cl)cc2)cc1", "note": "[Compound 135, (4-chlorophenyl)methyl N-(4-{[(4-methoxy-2-methylpyrazol-3-yl)formamido]methyl}phenyl)carbamate]", "AC1.4 Human": 1.07, "EC50": 3.28}
